In US6440999B1, “Intimal thickening inhibitory agent” (Chugai Seiyaku Kabushiki Kaisha, priority 1995, dated 2002):

Tested on: A7r5 cells derived from the aorta of a rat
Assay: Inhibition of serum- or PDGF-stimulated proliferation of vascular smooth muscle cells, [3H]-thymidine uptake
Assay type: cell-based
Description: In order to assess the inhibitory effect of a compound of the present invention on serum- or PDGF-stimulated proliferation of vascular smooth muscle cells in vitro, the compound obtained in Example 36 was tested using A7r5 cells derived from the aorta of a rat (ATCC-CRL-1444). Further, the effect was compared with that of α-tocopherol which was reported to have an inhibitory effect on proliferation of vascular smooth muscle cells (see J. Biol. Chem., 266, pp. 6188-6194 (1991)).
Using DMEM medium containing 10% FBS, the cells were placed on 96-well microtiter plates with 5×10^3 cells/0.2 ml/well and then incubated. The medium was exchanged for 2% FBS-containing DMEM medium on the third day and then for 0.2% FBS-containing DMEM medium on the fourth day from the start of the incubation. After 48-hour incubation in the 0.2% FBS-containing DMEM medium, the medium was removed, 0.2 ml of DMEM medium and the test compound were added, and the cells were stimulated with serum (2% FBS) or PDGF (PDGF-BB: human origin, available from Becton Dickinson Labware) (4 ng/ml) to proliferate. The test compound was added to the wells in the form of a solution or suspension in ethanol in amount of 1 μl well to final compound concentrations indicated in Table 2 below and the resultant ethanol concentration of 0.5% in each well. Eight hours after the stimulation, hydroxyurea was added to a final concentration of 1.5 mM to synchronize the cell cycle strictly. After additional 14-hour incubation, the medium containing hydroxyurea was removed and the cells were washed, and DMEM medium, the test compound and the proliferation stimulator were added thereto again. Further, [^3H]-thymidine (1 μCi/well; […]; available from NEN Research) was added. The [^3H]-thymidine uptake in 5 hours was measured as an indication of cell proliferation.

**Q.** CCCCCC1(CCCCC)Cc2c(cc(C(C)(C)C)c(O)c2C(C)(C)C)O1 [Example 36, 4,6-Di-t-butyl-2,2-di-n-pentyl-5-hydroxy-2,3-dihydrobenzofuran] was tested. Which “Count by Liquid Scintillation Counter, FBS Stimulation ([3H]-thymidine uptake)” value (100 μM, 2% FBS, uptake in 5 hours, control 42789 ± 1063, n = 3, mean ± SD) did it give?
**A.** The value was 14147 ± 1372 CPM.

**Q.** What about the “Count by Liquid Scintillation Counter, PDGF Stimulation ([3H]-thymidine uptake)” value (100 μM, PDGF-BB 4 ng/ml, uptake in 5 hours, control 24517 ± 2370, n = 3, mean ± SD) of the same compound?
**A.** The value was 7881 ± 356 CPM.

**Q.** What about the “Inhibitory effect compared with α-tocopherol (in words)” value ([3H]-thymidine uptake) of the same compound?
**A.** The value was “higher than that of α-tocopherol”.

**Q.** What about the “Inhibition of serum- or PDGF-stimulated proliferation of vascular smooth muscle cells (in words)” value ([3H]-thymidine uptake, 100 μM) of the same compound?
**A.** The value was “inhibits serum- or PDGF-stimulated proliferation of vascular smooth muscle cells”.
